ChEMBL document CHEMBL1144141, “Four new steroids from two octocorals” (J Nat Prod, 1999)
Converted amounts (≈) assume the structure as drawn.

Key:
Amphibalanus amphitrite [1] = test: Lethality against Balanus amphitrite cyprid larvae
Amphibalanus amphitrite [2] = test: Antifouling activity against Balanus amphitrite assessed as inhibition of cyprid larval settlement; assay type: functional, organism-based

**Q.** How did the LD100 (Amphibalanus amphitrite [1]) turn out when `COC(=O)/C=C/[C@@H](C)[C@H]1CC[C@H]2[C@@H]3CCC4=CC(=O)C=C[C@]4(C)[C@H]3CC[C@]12C` was run?
**A.** 100 µg/mL

**Q.** For `C=C[C@H]1CC[C@H]2[C@@H]3CCc4cc(OC)ccc4[C@H]3CC[C@]12C`, which LD100 (Amphibalanus amphitrite [1]) is on record?
**A.** 100 µg/mL

**Q.** For `CC(C)=CC(O)C(O)[C@@H](C)[C@H]1CC[C@H]2[C@@H]3CC[C@H]4CC(=O)C=C[C@]4(C)[C@H]3CC[C@]12C` (stereo partly drawn), which LD100 (Amphibalanus amphitrite [1]) is on record?
**A.** 100 µg/mL

**Q.** How did the LD100 (Amphibalanus amphitrite [1]) turn out when `C=C[C@H]1CC[C@H]2[C@@H]3CCc4cc(O[C@@H]5O[C@@H](C)[C@@H](OC(C)=O)[C@@H](O)[C@@H]5O)ccc4[C@H]3CC[C@]12C` was run?
**A.** 100 µg/mL

**Q.** With `CC(=O)O[C@H]1C[C@H]2[C@@H](CCC3=CC(=O)C=C[C@@]32C)[C@]23CC[C@]([C@H](C)CCCC(C)C)(O[C@@]12C)O3` [ISOGOSTERONE A] as the molecule, how does the EC50 (Amphibalanus amphitrite [2]) read?
**A.** 2.2 µg/mL (≈ 4.67 µM)

**Q.** Which EC50 (Amphibalanus amphitrite [2]) does the source give for `CC(=O)O[C@H]1C[C@H]2[C@@H](CCC3=CC(=O)C=C[C@@]32C)[C@]2(CC[C@@](O)([C@H](C)C(=O)CCC(C)C)O2)[C@@]1(C)O` [ISOGOSTERONE B] here?
**A.** 2.2 µg/mL (≈ 4.38 µM)

**Q.** For `CC(=O)OC(CCC(C)C)[C@@H](C)[C@]1(O)CC[C@@]2(O1)[C@@H]1CCC3=CC(=O)C=C[C@]3(C)[C@H]1C[C@H](OC(C)=O)[C@]2(C)O` (stereo partly drawn) [ISOGOSTERONE C], which EC50 (Amphibalanus amphitrite [2]) is on record?
**A.** 2.2 µg/mL (≈ 4.02 µM)

**Q.** Which EC50 (Amphibalanus amphitrite [2]) does the source give for `CC(=O)OC(CCC(C)C)[C@@H](C)[C@]12CC[C@@]3(O1)[C@@H]1CCC4=CC(=O)C=C[C@]4(C)[C@H]1C[C@H](OC(C)=O)[C@]3(C)O2` (stereo partly drawn) [ISOGOSTERONE D] here?
**A.** 2.2 µg/mL (≈ 4.16 µM)
